System: Staphylococcus aureus (10788 strain)
Test: 15 second contact kill test / antimicrobial efficacy of actives against S. aureus in water
Type: cell-based
Conditions: 0.1% 3 isopropyl 6 methyl catechol (IPMC) alone
Experimental: Selected materials were also tested against a representative Grant positive Staphylococcus aureus. An overnight culture of Staphylococcus aureus (10788 strain) was inoculated onto a […] Soy Agar (TSA) plate and grown for ca. 18 hrs at 37° C. The culture S. aureus was washed from the plate using sterile saline (0.85% NaCl) solution and a sterile spreader and suspended in 50 ml saline. This suspension was separated into equal volumes and centrifuged at 4000 rpm for 15 minutes. […] Here, OD620 indicates the absorbance of a sample in a cuvette of 1.0 cm path length at a wavelength of 620 nm. This bacterial stock was used for assaying against antimicrobial actives (in triplicate). The following assay describes the testing of 8 materials using 6 dilutions across half of a 96-well micro titre plate (MTP). Using this approach it is possible to assay 16 actives (without replicates) with one full dilution plate, replicating this set up in two halves of the plate columns, 1-6 and 7-12. 1M solutions of the test actives were prepared in dimethylsulphoxide (DMSO). […] Aliquots (270 μl) of the materials at 1.11 times the final concentration were dispensed into the wells of the MTP along one column (A1-H1). This MTP was labelled as the “Screening plate”. In another MTP, labelled as the “Dilution plate”, […] of D/E neutralising solution from DIFCO Composition was added to column 1. The composition of the neutralising solution was as follows: pancreatic digest of casein, 5.0 g/L; […] Dextrose, 10 g/L, sodium thioglycollate, 1.0 g/L, sodium thiosulphate, 6.0 g/L; sodium bisulphite, 2.5 g/L; […] […] From the colony number in this segment, NMBS is calculated by the formula: NMBS=log {Ncol·10^DF·100/3} Here, Ncol is the colony count, and DF is the dilution factor taken from the MTP-well corresponding to the TSA plate segment (i.e. DF may range from 1 for the quench, to 6 for the highest dilution). […] Here, OD620 indicates the absorbance of a sample in a cuvette of 1.0 cm path length at a wavelength, of 620 nm. […]

Cc1ccc(C(C)C)c(O)c1O [3-isopropyl-6-methylbenzene-1,2-diol]
S. aureus 6538 Log Reduction: −0.07

From patent publication US9320271B2, “Microbial composition” (Rohm and Haas Company, priority 2011, dated 2016)
